These results are taken from patent US20080070972A1, “Controlled release formulations” (priority 2006, published 2008).

Data set [1] can be described thus: Regional absorption studies. The conditions noted are these: in vivo.
Data set [2] is described as follows: Flowability of the bulk material. Format: physicochemical. The conditions noted are these: 500 μm sieved bulk non-granulated material. From the text: (§1) The increase in density of the granulated material relative to the non-granulated material results in improved flow characteristics which facilitate easier handling during manufacturing processes such as formulation. Bulk and granulated densities can be measured with a measuring cylinder. The values for the bulk (ρb) and tap (ρt) densities can be used to calculate index of compressibility (% Compressibility), which is indicative of the flow properties of the material. The % Compressibility can be calculated by the following formula: % Compressibility=[(ρt−−ρb)/ρt-]×100%. See, e.g., The theory and practice of industrial pharmacy, by L. Lachman, H. Lieberman, and J. Kanig, in Varghese Publishing House, 3rd Indian Edition, (Hind Rajasthan Bldng, Dadar Bombay 400 014), 1987, p. 184. Also, flowability of the material can be determined by Flodex analysis. The Flodex Test Apparatus is ideal for determining the intrinsic flowability of powders (which is recommended for quality control of powders). The Flodex instrument includes a complete set of index flow disks with opening of different diameter. A tested powder is allowed to flow through the opening. […] See, e.g., Composite Method to Quantify Powder Flow as a Screening Method in Early Tablet or Capsule Formulation Development, by Michael K. Taylor, Jeri Ginsburg, Anthony Hickey, and Ferdous Gheyas, in AAPS PharmSciTech, 2000, 1(3): article 18.

The nature of data set [3]: Bulk, granule and pellet density measurement. Format: physicochemical.
Excerpt: as §1

`CCO[C@@H]1OC(=O)C[C@@H]1NC(=O)[C@@H]1CCCN1C(=O)[C@@H](NC(=O)c1ccc(N)c(Cl)c1)C(C)(C)C` [compound of Formula (I)]: the regional absorption entry in data set [1] is listed as “colonic absorption”. For the same molecule, the flowability entry in data set [2] is “very poor flowability”. Moreover, the “density of the bulk material” value in data set [3] (500 μm sieved bulk non-granulated material) is “around 0.24 g/cm^3”. The “density of the natural form” value in data set [3] (natural (non-granulated) form) is listed as “about 0.2 g/cm^3”.
